Results on 1 compound are retold here after PMC7923466, “Mining of two novel aldehyde dehydrogenases (DHY-SC-VUT5 and DHY-G-VUT7) from metagenome of hydrocarbon contaminated soils” (BMC Biotechnology, 2021).

For orientation: Km means the substrate concentration at which the rate is half of its maximum.

Structures are written as SMILES.

One experiment has as its system T1, DHY-G-VUT7.
T1 construct: codon-optimised synthetic gene in pET-30a(+) (NdeI/HindIII), C-terminal 6xHis kept, E. coli BL21(DE3), Ni-NTA purified, ~67 kDa band
Description: NADH formation at […] nm, Michaelis-Menten fit (GraphPad Prism). Type of experiment: biochemical, metagenome: hydrocarbon contaminated soil. Conditions: 50 mM NAD+, 50 mM Tris-HCl pH 8.0, 30 °C; hexanal 25-200 mM.

For a further experiment, the system named is T2, DHY-SC-VUT5.
T2 construct: codon-optimised synthetic gene in pET-30a(+) (NdeI/HindIII), C-terminal 6xHis kept, E. coli BL21(DE3), Ni-NTA purified, ~51 kDa band
The description is as above. The conditions noted are these: 50 mM NAD+, 50 mM Tris-HCl pH 8.0, 30 °C; hexanal 25-200 mM. Type of experiment: biochemical, uncultured bacterium.

In the case of `CCCCCC=O` [hexanal], the Km in the experiment on DHY-G-VUT7 was 2.83 mM; in the experiment on DHY-SC-VUT5 it was 13.8 mM.
